According to patent US10668049B2, “Methods of treating cognitive decline with transforming growth factor beta inhibitors” (The Regents of the University of California, priority 2008, dated 2020):

Tests used:
[1] = tested on: Smad2; experiment: Smad2-P Western blot of cortical lysates after in vivo albumin treatment; design: species or system rat; settings: animals exposed for 48 hours, compared to sham-operated controls
Method: All experimental procedures were approved by the ethical committees dealing with experiments on animals at Charité University Medicine, Berlin and Ben-Gurion University of the Negev, Beer-Sheva. The in vivo experiments were performed as previously described (ivens et al., 2007; Seiffert et al., 2004). Adult male Wistar rats were treated with artificial cerebrospinal fluid (aCSF, composition in mM: 129 NaCl, 21 NaHCO3, 1.25 NaH2PO4, 1.8 MgSO4, 1.6 CaCl2, 3 KCl, 10 glucose) supplemented with deoxycholic acid (DOC, 2 mM, Sigma-Aldrich, Steinheim, Germany), bovine serum albumin (BSA, 0.1 mM. Merck, Darmstadt, Germany) corresponding to 25% of serum albumin concentration, or with TGF-β1 (10 ng/ml, Peprotech, Rocky Hill, N.J.). Sham-operated animals (perfused with aCSF) served as controls. […] Animals were sacrificed 7/8, 24, or 48 hours following treatment. […]
(§1) To determine whether albumin binds to TGF-β receptors, co-immunoprecipitation using antibodies against albumin or TGF-βRII was performed on cortical lysate samples treated with albumin. An expected hand corresponding to TGF-βRII was detected in samples immunoprecipitated with the TGF-βRII antibody. More importantly, this band was also detected in samples pre-incubated with albumin when immunoprecipitated with the albumin antibody and probed for TGF-βRII (FIG. 2a). […]

[2] = tested on: albumin-induced epileptogenesis; experiment: EEG recording from awake rats during albumin-induced epileptogenesis; assay type: in vivo, rat
[3] = target: T1, TGF-βRII (Rattus norvegicus, UniProt P38438); experiment: Albumin and TGF-βRII co-immunoprecipitation in cortical lysates; assay type: binding; settings: cortical lysate pre-incubated with albumin
T1 construct: brains were isolated from adult Wistar rats, dissected in cold saline solution and lysed in RIPA buffer; from tissue; host or cells: adult Wistar rat brain cortex lysate (RIPA buffer)
T1 sequence (P38438 24-567): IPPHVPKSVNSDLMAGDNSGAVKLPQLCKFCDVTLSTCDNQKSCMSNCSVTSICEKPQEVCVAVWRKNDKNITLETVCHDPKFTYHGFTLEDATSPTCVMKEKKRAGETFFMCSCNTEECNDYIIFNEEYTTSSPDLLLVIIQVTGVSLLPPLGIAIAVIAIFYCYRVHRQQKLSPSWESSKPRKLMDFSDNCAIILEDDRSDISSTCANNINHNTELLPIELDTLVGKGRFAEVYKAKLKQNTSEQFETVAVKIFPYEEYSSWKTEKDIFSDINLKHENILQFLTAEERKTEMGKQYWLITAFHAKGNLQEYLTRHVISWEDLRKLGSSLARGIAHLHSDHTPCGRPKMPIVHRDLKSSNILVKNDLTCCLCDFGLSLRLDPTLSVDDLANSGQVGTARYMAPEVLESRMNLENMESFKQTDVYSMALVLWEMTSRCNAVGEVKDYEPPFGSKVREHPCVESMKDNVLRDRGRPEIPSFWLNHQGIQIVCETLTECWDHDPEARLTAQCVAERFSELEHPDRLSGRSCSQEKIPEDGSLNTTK
Method: To prepare cortical lysates, brains were isolated from adult Wistar rats, dissected in cold saline solution and lysed in RIPA buffer. BSA (3 μg) was added to lysates to approximately match the amount of precipitating anti-albumin antibodies. Immunoprecipitation was performed using the Catch and Release® v2.0 Reversible Immunoprecipitation System (Upstate, Charlottesville, Va.) with the following modifications to the standard protocol: the starting amount of protein was increased to 1,500 μg and the incubation time with precipitating antibodies was increased to 90 minutes. […]
The immunoprecipitated samples were separated with SDS-PAGE and transferred onto a nitrocellulose membrane. […] TGF-βRII was detected with a rabbit anti-TGF-βRII antibody (Upstate) and an AP-conjugated donkey anti-rabbit IgG secondary antibody (Jackson ImmunoResearch Laboratories, West Grove, Pa.). […]
as §1

[4] = during albumin-induced epileptogenesis

## albumin: bovine serum albumin, used to induce epileptogenesis
[1]
  Smad2 phosphorylation levels in cortical lysates: increase in Smad2 phosphorylation
[2]; [4]
  EEG complexity (fractal dimension): decrease
  EEG signal harmony: increase
[2]; one week following treatment
  number of seizure like events (SLEs): sharp increase
[3]
  interaction with TGF-βRII (co-immunoprecipitation): direct interaction
